These results are taken from ChEMBL document CHEMBL1145401, “Design and synthesis of classical and nonclassical 6-arylthio-2,4-diamino-5-ethylpyrrolo[2,3-d]pyrimidines as antifolates” (J Med Chem, 2007).

The target of test [1] is T1, Bifunctional dihydrofolate reductase-thymidylate synthase (Toxoplasma gondii, UniProt Q07422).
T1 sequence (Q07422 whole entry): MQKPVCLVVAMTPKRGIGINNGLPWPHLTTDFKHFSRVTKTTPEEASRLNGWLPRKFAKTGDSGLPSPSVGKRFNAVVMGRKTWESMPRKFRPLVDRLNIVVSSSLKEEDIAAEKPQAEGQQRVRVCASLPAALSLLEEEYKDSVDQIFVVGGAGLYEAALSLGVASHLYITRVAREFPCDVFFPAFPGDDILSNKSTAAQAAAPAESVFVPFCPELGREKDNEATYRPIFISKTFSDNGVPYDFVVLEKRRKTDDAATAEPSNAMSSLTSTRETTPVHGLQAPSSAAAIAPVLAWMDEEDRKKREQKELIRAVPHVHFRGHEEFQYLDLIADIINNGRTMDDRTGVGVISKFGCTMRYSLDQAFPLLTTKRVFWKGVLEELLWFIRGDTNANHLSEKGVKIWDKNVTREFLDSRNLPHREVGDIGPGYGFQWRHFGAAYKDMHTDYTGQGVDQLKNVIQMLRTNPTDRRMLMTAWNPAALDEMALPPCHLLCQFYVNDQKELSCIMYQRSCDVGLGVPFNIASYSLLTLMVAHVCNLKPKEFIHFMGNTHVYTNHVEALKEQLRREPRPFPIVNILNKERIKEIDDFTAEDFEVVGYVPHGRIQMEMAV
Description: Inhibition of Toxoplasma gondii DHFR

A short description of test [2]: Selectivity ratio of IC50 for rat liver DHFR to IC50 for Pneumocystis carinii DHFR.
The target of test [3] is T2, Dihydrofolate reductase (Mycobacterium avium, UniProt O30463).
T2 sequence (O30463 whole entry): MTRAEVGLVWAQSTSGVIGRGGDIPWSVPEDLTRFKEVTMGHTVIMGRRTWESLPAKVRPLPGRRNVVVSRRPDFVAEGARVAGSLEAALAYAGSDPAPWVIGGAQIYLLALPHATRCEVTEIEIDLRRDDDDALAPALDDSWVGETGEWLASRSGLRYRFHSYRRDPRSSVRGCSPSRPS
Description: Inhibition of Mycobacterium avium DHFR

The target of test [4] is T3, Dihydrofolate reductase (Homo sapiens, UniProt P00374).
A short description of test [5]: Inhibition of Escherichia coli DHFR.
For test [6], the target named is T4, Dihydrofolate reductase (Pneumocystis carinii, UniProt P16184).
T4 sequence (P16184 whole entry): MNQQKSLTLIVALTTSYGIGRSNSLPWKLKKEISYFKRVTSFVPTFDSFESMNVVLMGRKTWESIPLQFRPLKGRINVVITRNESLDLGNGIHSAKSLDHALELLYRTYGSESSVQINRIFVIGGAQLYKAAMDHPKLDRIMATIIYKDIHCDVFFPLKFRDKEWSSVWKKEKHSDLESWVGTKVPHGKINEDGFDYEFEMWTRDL
Description: Inhibition of Pneumocystis carinii DHFR

Test [7] deals with T5, Dihydrofolate reductase (Rattus norvegicus, UniProt Q920D2).
T5 sequence (Q920D2 whole entry): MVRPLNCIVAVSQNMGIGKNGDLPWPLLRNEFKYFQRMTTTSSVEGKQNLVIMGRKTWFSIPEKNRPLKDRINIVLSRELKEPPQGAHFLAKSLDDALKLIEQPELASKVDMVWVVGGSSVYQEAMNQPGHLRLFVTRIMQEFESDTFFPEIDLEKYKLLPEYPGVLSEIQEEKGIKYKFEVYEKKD
Description: Inhibition of rat liver DHFR

Test [8] is described as follows: Selectivity ratio of IC50 for rat liver DHFR to IC50 for Mycobacterium avium DHFR.
Test [9] concerns the target T3, Dihydrofolate reductase. Kind of test: Inhibition of human DHFR relative to control. The conditions noted are these: concentration not given here.
Test [10] can be described thus: Selectivity ratio of IC50 for human DHFR to IC50 for Escherichia coli DHFR.
Test [11] has as its target Dihydrofolate reductase (Pneumocystis carinii) (UniProt P16184). The conditions noted are these: 20 uM.
Description: Inhibition of Pneumocystis carinii DHFR at 20 uM
Test [12] has as its system CCRF-CEM. Kind of test: Cytotoxicity against CCRF-CEM cells. The format is functional. The conditions noted are these: Homo sapiens.
The next test deals with HT-29. Kind of test: Cytotoxicity against HT29 cells. The conditions noted are these: Homo sapiens. It is filed as functional.
In the next test the test system is PC-3. Kind of test: Cytotoxicity against PC3 cells. It is filed as functional. The conditions noted are these: Homo sapiens.
Another test deals with MOLT-4. Put plainly: Cytotoxicity against MOLT4 cells. The conditions noted are these: Homo sapiens. The format is functional.
Another test relates to SR. Kind of test: Cytotoxicity against SR cells. It is filed as functional. The conditions noted are these: Homo sapiens.
The test system of another test is SW-620. Put plainly: Cytotoxicity against SW620 cells. It is filed as functional. The conditions noted are these: Homo sapiens.
A further test has as its system RPMI-8226. Put plainly: Cytotoxicity against RPMI8226 cells. The format is functional. Conditions: Homo sapiens.
The subject of a further test is LOX IMVI. Kind of test: Cytotoxicity against LOX IMVI cells. It is filed as functional. The conditions noted are these: Homo sapiens.
Another test relates to U-251. Kind of test: Cytotoxicity against U251 cells. It is filed as functional. Conditions: Homo sapiens.
In a further test the test system is K562. Put plainly: Cytotoxicity against K562 cells. It is filed as functional. Conditions: Homo sapiens.
The next test has as its system NCI-H460. Put plainly: Cytotoxicity against NCI-H460 cells. It is filed as functional. The conditions noted are these: Homo sapiens.
In test [13] the test system is CCRF-CEM. Put plainly: Effect on growth of human CCRF-CEM cells at 40 nM in presence of 10 uM deoxycytidine, 5 uM thymidine relative to control. The format is functional.
Test [14] concerns CCRF-CEM. Kind of test: Effect on growth of human CCRF-CEM cells at 40 nM in presence of 10 uM deoxycytidine, 10 uM hypoxanthine relative to control. The format is functional.
The subject of test [15] is CCRF-CEM. Kind of test: Effect on growth of human CCRF-CEM cells at 40 nM in presence of 10 uM deoxycytidine, 5 uM thymidine and 10 uM hypoxanthine relative to control. It is filed as functional.
Test [16] relates to CCRF-CEM. Kind of test: Effect on growth of human CCRF-CEM cells at 40 nM in presence of 10 uM deoxycytidine relative to control. The format is functional.

In the case of `CCc1c(Sc2cccc(OC)c2)[nH]c2nc(N)nc(N)c12`, the IC50 in test [1] is 1.09 µM; at Dihydrofolate reductase [3], 0.77 µM; against Dihydrofolate reductase [4] it was above 32 µM; in [5], 0.32 µM; on Dihydrofolate reductase [6] it was 28.3 µM; at Dihydrofolate reductase [7], 31 µM. The Ratio IC50 is 1.1 in test [2], 40.5 in test [8] and above 100 in [10]. Moreover, the inhibition at Dihydrofolate reductase [9] was determined as 35%.

For the compound `CCc1c(Sc2ccc(Cl)cc2)[nH]c2nc(N)nc(N)c12`, the concentration for half-maximal inhibition (IC50) in test [1] is 1.54 µM; against Dihydrofolate reductase [3], 0.7 µM; at Dihydrofolate reductase [4] it was above 31 µM; against Dihydrofolate reductase [6] it was 11.9 µM; against Dihydrofolate reductase [7] it was 5.48 µM. The Ratio IC50 in test [2] turned out to be 0.5; in test [8], 7.8. Further, at Dihydrofolate reductase [9], the inhibition is 36%.

Consider `CCc1c(Sc2cccc3cccnc23)[nH]c2nc(N)nc(N)c12`, for which the IC50 against Dihydrofolate reductase [3] amounted to 0.11 µM; on Dihydrofolate reductase [4], 1.4 µM; against Dihydrofolate reductase [6], 9.58 µM; on Dihydrofolate reductase [7], 3.55 µM.

With `CCc1c(Sc2cccc3ccccc23)[nH]c2nc(N)nc(N)c12`, the IC50 in test [1] is 3.15 µM; against Dihydrofolate reductase [3] it was 19.8 µM; against Dihydrofolate reductase [4], 2.9 µM; on Dihydrofolate reductase [6], 18.4 µM; against Dihydrofolate reductase [7] it was 40.1 µM.

Regarding `CCc1c(Sc2ccc(OC)cc2)[nH]c2nc(N)nc(N)c12`, the 50% inhibitory concentration (IC50) came out at 4.62 µM in [1]; 3.07 µM on Dihydrofolate reductase [3]; 2.9 µM against Dihydrofolate reductase [4]; 53 µM against Dihydrofolate reductase [6]; 31.8 µM on Dihydrofolate reductase [7].

As for `CCc1c(Sc2ccc([N+](=O)[O-])cc2)[nH]c2nc(N)nc(N)c12`, the IC50 worked out at 0.32 µM in test [1]; 0.37 µM on Dihydrofolate reductase [3]; 5.8 µM against Dihydrofolate reductase [4]; 0.09 µM in test [5]; 8.68 µM against Dihydrofolate reductase [6]; 3.2 µM against Dihydrofolate reductase [7]. Moreover, the values for the Ratio IC50 in test [2], in [8] and in test [10] were 0.4, 8.6 and 64.4, respectively.

In the case of `Cc1c(Sc2ccc(Cl)c(Cl)c2)[nH]c2nc(N)nc(N)c12`, the IC50 in test [1] was determined as 20 µM; at Dihydrofolate reductase [3], 19 µM; at Dihydrofolate reductase [7] it was 110 µM. Besides, the Ratio IC50 in [2] amounted to 9.1; in test [8], 5.8. This compound also registered an inhibition in test [11] of 14%.

As to `Cc1nc(N)c2c(C)c(Sc3ccc(C(=O)N[C@@H](CCC(=O)O)C(=O)O)cc3)[nH]c2n1`, the GI50 in the test with CCRF-CEM [12] is 0.22 µM; in the test with HT-29 it was 0.16 µM; with PC-3, 0.44 µM; with MOLT-4, below 0.01 µM; with SR, above 0.1 µM; in the test with SW-620, 0.12 µM. Moreover, the GI50 with RPMI-8226 was below 0.01 µM; with LOX IMVI, 0.17 µM; in the test with U-251, 0.82 µM; with K562 it was 0.027 µM; in the test with NCI-H460 it was 0.63 µM.

On to `CCc1c(Sc2ccccc2)[nH]c2nc(N)nc(N)c12`, for which the IC50 in [1] is 0.18 µM; against Dihydrofolate reductase [4], 18 µM.

Turning to `CCc1c(Sc2cc(OC)ccc2OC)[nH]c2nc(N)nc(N)c12`, the results for the IC50 (in [1]; at Dihydrofolate reductase [4]) were 0.12 µM and 5.8 µM, respectively.

For `CCc1c(Sc2ccc(Cl)cc2Cl)[nH]c2nc(N)nc(N)c12`, the IC50 came out at 0.22 µM in test [1]; 0.35 µM on Dihydrofolate reductase [3]; 1.4 µM against Dihydrofolate reductase [4]; 0.14 µM in test [5]; 7.19 µM on Dihydrofolate reductase [6]; 1.17 µM against Dihydrofolate reductase [7]. The Ratio IC50 in [2] was 0.2; in [8] it was 3.3; in test [10] it was 10.

Take `CCc1c(Sc2ccc(Br)cc2)[nH]c2nc(N)nc(N)c12`: the IC50 came to 11.6 µM in test [1]; 7.4 µM against Dihydrofolate reductase [3]; 2.7 µM on Dihydrofolate reductase [4]; 0.14 µM in [5]; 26.6 µM against Dihydrofolate reductase [6]; 10.1 µM at Dihydrofolate reductase [7]. The Ratio IC50 came to 0.4 in test [2], 1.4 in [8] and 19.3 in [10].

Regarding `CCc1c(Sc2cccc(Cl)c2)[nH]c2nc(N)nc(N)c12`, the IC50 was 0.5 µM in test [1]; 0.42 µM at Dihydrofolate reductase [3]; above 31 µM on Dihydrofolate reductase [4]; 0.16 µM in [5]; 4.02 µM at Dihydrofolate reductase [6]; 6.33 µM against Dihydrofolate reductase [7]. The Ratio IC50 in [2] was 1.6; in [8], 15.1; in [10], above 194. The compound further had an inhibition on Dihydrofolate reductase [9] of 30%.

Take `CCc1c(Sc2ccc3ccccc3c2)[nH]c2nc(N)nc(N)c12`: the IC50 in test [1] is 5.12 µM; against Dihydrofolate reductase [3] it was 6.52 µM; against Dihydrofolate reductase [4], 6 µM; at Dihydrofolate reductase [6], 13.9 µM; on Dihydrofolate reductase [7], 8.62 µM.

For the compound `Cc1c(Sc2ccc3ccccc3c2)[nH]c2nc(N)nc(N)c12`, the results for the IC50 (in test [1]; at Dihydrofolate reductase [3]) were 0.16 µM and 0.7 µM, respectively. Moreover, the Ratio IC50 in test [2] was determined as 0.1; in [8], 6.5.

For `COc1ccc(Sc2[nH]c3nc(N)nc(N)c3c2C)cc1`, at Dihydrofolate reductase [3], the IC50 was determined as 0.69 µM.

Take `CN(Cc1cnc2nc(N)nc(N)c2n1)c1ccc(C(=O)N[C@@H](CCC(=O)O)C(=O)O)cc1` [METHOTREXATE]: the Activity in the test with CCRF-CEM [13] was 13%; in the test with CCRF-CEM [14] it was 14%; in the test on CCRF-CEM [15] it was 74%; in the test on CCRF-CEM [16], 11%.

Regarding `CCc1c(Sc2c(C)cccc2C)[nH]c2nc(N)nc(N)c12`, the IC50 in test [1] came to 7.1 µM; against Dihydrofolate reductase [3] it was 18.4 µM; against Dihydrofolate reductase [6], 30.2 µM; at Dihydrofolate reductase [7], 10.1 µM.

With `CCc1c(Sc2c(Cl)cccc2Cl)[nH]c2nc(N)nc(N)c12`, the IC50 in test [1] is 3.8 µM; at Dihydrofolate reductase [3] it was 12 µM; against Dihydrofolate reductase [4] it was above 28 µM; against Dihydrofolate reductase [6], 20.6 µM; at Dihydrofolate reductase [7], 4 µM. In addition, the Ratio IC50 in test [2] was 0.2; in test [8], 0.33. Moreover, the inhibition against Dihydrofolate reductase [9] was 30%.
